One experiment deals with NIH-3T3 cells. As to the kind of experiment: qHTS cell viability (CellTiter-Glo, 72 h; primary screen), control cell line. It is filed as cell-based, mouse. For orientation: In qHTS, concentration-response curves come from the screen itself.
For another experiment, the system named is MKL-1 cells (VP-MCC). Put plainly: qHTS cell viability (CellTiter-Glo, 72 h; primary and follow-up small molecule screen). Format: cell-based, human.
Experiment [1] has as its system VP-MCC cell lines (WAGA, MKL-1, MKL-2). As to the kind of experiment: qHTS cell viability, VP-MCC cell lines as a group (mean AUC, VP.MCC.avg). It is filed as cell-based, human.
A further experiment deals with MCC13 cells (VN-MCC). As to the kind of experiment: qHTS cell viability (CellTiter-Glo, 72 h; primary and follow-up small molecule screen). It is filed as cell-based, human.
The test system of the next experiment is UISO cells (VN-MCC). Described as above. Format: cell-based, human.
The subject of the next experiment is HEK293T cells. Put plainly: qHTS cell viability (CellTiter-Glo, 72 h; primary screen), control cell line. It is filed as cell-based, human.
The next experiment concerns WAGA cells (VP-MCC). Put plainly: qHTS cell viability (CellTiter-Glo, 72 h; primary and follow-up small molecule screen). Format: cell-based, human.
For experiment [2], the system named is VN-MCC cell lines (MCC13, MCC26, UISO). As to the kind of experiment: qHTS cell viability, VN-MCC cell lines as a group (mean AUC, VN.MCC.avg). Format: cell-based, human.
A further experiment deals with HACAT cells. Put plainly: qHTS cell viability (CellTiter-Glo, 72 h; primary screen), control cell line. Format: cell-based, human.
A further experiment deals with MCC26 cells (VN-MCC). As to the kind of experiment: qHTS cell viability (CellTiter-Glo, 72 h; primary and follow-up small molecule screen). It is filed as cell-based, human.
Experiment [3] relates to MCC cell lines (WAGA, MKL-1, MKL-2, MCC13, MCC26, UISO). As to the kind of experiment: qHTS cell viability, all six MCC cell lines as a group (mean AUC, MCC.avg). It is filed as cell-based, human.
A further experiment relates to MKL-2 cells (VP-MCC). Put plainly: qHTS cell viability (CellTiter-Glo, 72 h; primary and follow-up small molecule screen). Format: cell-based, human.
The subject of experiment [4] is six MCC cell lines and four control cell lines. Put plainly: qHTS cell viability, all 10 cell lines screened. It is filed as cell-based.
The subject of experiment [5] is control cell lines (HACAT, HEK293T, CRL-7250, NIH-3T3). Put plainly: qHTS cell viability, control cell lines as a group (mean AUC, Control.avg). Format: cell-based.
In the next experiment the test system is CRL-7250 cells. Put plainly: qHTS cell viability (CellTiter-Glo, 72 h; primary screen), control cell line. Format: cell-based.
[6] abbreviates: NPC library, qHTS dose-response AUC, NIH3T3 control.
[7] abbreviates: NPC library, qHTS dose-response AUC, MKL1.
[8] abbreviates: NPC library, mean AUC of VP-MCC cell lines.
[9] abbreviates: NPC library, therapeutic window: Control avg AUC minus VP-MCC avg AUC.
Setting [10] is: NPC library, qHTS dose-response AUC, MCC13.
The mark [11] stands for this setting: NPC library, qHTS dose-response AUC, UISO.
[12] abbreviates: NPC library, qHTS dose-response AUC, HEK293T control.
Setting [13] is: NPC library, qHTS dose-response AUC, WAGA.
Setting [14] is: NPC library, mean AUC of VN-MCC cell lines.
Where [15] appears, read: NPC library, therapeutic window: Control avg AUC minus VN-MCC avg AUC.
[16] abbreviates: NPC library, qHTS dose-response AUC, HACAT control.
Where [17] appears, read: NPC library, qHTS dose-response AUC, MCC26.
[18] abbreviates: NPC library, mean AUC of six MCC cell lines.
[19] abbreviates: NPC library, qHTS dose-response AUC, MKL2.
Setting [20] is: NPC library, therapeutic window: Control avg AUC minus MCC avg AUC.
Setting [21] is: NPC library, mean AUC of control cell lines.
Setting [22] is: NPC library, qHTS dose-response AUC, CRL7250 control.

Like-named read-outs stand apart in the source and are kept apart here.

Take `Cc1nc2ccccn2c(=O)c1CCN1CCC(C(=O)c2ccc(F)cc2)CC1` [Pirenperone]: the NIH3T3_AUC in the experiment on NIH-3T3 cells (setting [6]) is 477.551; with NIH-3T3 cells (area under the dose-response curve, NIH3T3 control cells, AUC<450 = reduced viability), 477.551. The MKL1_AUC in the experiment with MKL-1 cells (VP-MCC) (setting [7]) and in the experiment on MKL-1 cells (VP-MCC) ({}) was 418.427 each time. For the same molecule, in experiment [1] (setting [8]), the VP-MCC_Avg_AUC is listed as 411.748. Moreover, the Control-VP-MCC in [1] (setting [9]) was determined as 54.686. For the same molecule, the MCC13_AUC with MCC13 cells (VN-MCC) (setting [10]) is given as 440.287; in the experiment with MCC13 cells (VN-MCC) (area under the dose-response curve, MCC13 cells, AUC<450 = reduced viability) it was 440.287. In addition, the UISO_AUC amounted to 436.893 in the experiment on UISO cells (VN-MCC) (setting [11]) and 436.893 with UISO cells (VN-MCC) (area under the dose-response curve, UISO cells, AUC<450 = reduced viability). Moreover, the HEK293T_AUC with HEK293T cells (setting [12]) came out at 450.239; in the experiment with HEK293T cells (area under the dose-response curve, HEK293T control cells, AUC<450 = reduced viability) it was 450.239. Besides, the WAGA_AUC is listed as 415.843 in the experiment on WAGA cells (VP-MCC) (setting [13]) and 415.843 in the experiment with WAGA cells (VP-MCC) (area under the dose-response curve, WAGA cells, AUC<450 = reduced viability). In [2] (setting [14]), this molecule came in with a VN-MCC_Avg_AUC of 426.258. This molecule also gave a Control-VN-MCC in experiment [2] (setting [15]) of 40.1758. In addition, the HACAT_AUC came out at 457.02 in the experiment with HACAT cells (setting [16]) and 457.02 with HACAT cells (area under the dose-response curve, HACAT control cells, AUC<450 = reduced viability). Further, the MCC26_AUC with MCC26 cells (VN-MCC) (setting [17]) came out at 401.594; with MCC26 cells (VN-MCC) (area under the dose-response curve, MCC26 cells, AUC<450 = reduced viability), 401.594. Also, the MCC_Avg_AUC in [3] (setting [18]) is recorded as 419.003. Besides, the MKL2_AUC in the experiment with MKL-2 cells (VP-MCC) (setting [19]) came out at 400.974; in the experiment with MKL-2 cells (VP-MCC) (area under the dose-response curve, MKL-2 cells, AUC<450 = reduced viability), 400.974. The Control-MCC in [4] (setting [20]) is given as 47.4309. The same molecule came in with a Control_Avg_AUC in [5] (setting [21]) of 466.434. For the same molecule, the CRL7250_AUC worked out at 480.924 in the experiment with CRL-7250 cells (setting [22]) and 480.924 in the experiment with CRL-7250 cells (area under the dose-response curve, CRL7250 control cells, AUC<450 = reduced viability).

With `CC[N+]1(CC)CCC(=C(c2ccccc2)c2ccccc2)C1C` (stereo not shown) [Prifinium bromide], the NIH3T3_AUC in the experiment with NIH-3T3 cells (setting [6]) came out at 466.796. The molecule further came in with an MKL1_AUC with MKL-1 cells (VP-MCC) (setting [7]) of 413.62. The VP-MCC_Avg_AUC in experiment [1] (setting [8]) is on record as 414.775. In [1] (setting [9]), the Control-VP-MCC is reported as 53.5255. In addition, the MCC13_AUC in the experiment with MCC13 cells (VN-MCC) (setting [10]) came out at 477.436. Further, in the experiment with UISO cells (VN-MCC) (setting [11]), the UISO_AUC was determined as 446.738. The same molecule yielded an HEK293T_AUC in the experiment on HEK293T cells (setting [12]) of 463.923. In addition, the WAGA_AUC in the experiment on WAGA cells (VP-MCC) (setting [13]) is on record as 419.066. In experiment [2] (setting [14]), this molecule showed a VN-MCC_Avg_AUC of 472.229. This molecule also registered a Control-VN-MCC in [2] (setting [15]) of -3.929. This molecule also showed an HACAT_AUC with HACAT cells (setting [16]) of 452.968. The molecule further came in with an MCC26_AUC in the experiment with MCC26 cells (VN-MCC) (setting [17]) of 492.512. The same molecule registered an MCC_Avg_AUC in experiment [3] (setting [18]) of 443.502. For the same molecule, the MKL2_AUC in the experiment on MKL-2 cells (VP-MCC) (setting [19]) came to 411.638. The molecule also gave a Control-MCC in [4] (setting [20]) of 24.7984. In experiment [5] (setting [21]), this molecule came in with a Control_Avg_AUC of 468.3. Besides, the CRL7250_AUC in the experiment with CRL-7250 cells (setting [22]) came to 489.513.

In the experiment on NIH-3T3 cells, `COc1cc(NC(C)CCCN)c2ncccc2c1` (stereo not shown) [Primaquine diphosphate] had an NIH3T3_AUC of 490.172. This molecule came in with an MKL1_AUC in the experiment with MKL-1 cells (VP-MCC) of 406.282. In experiment [1], the Control-VP-MCC was found to be 69.0896 and the VP-MCC_Avg_AUC is recorded as 409.912. Also, the MCC13_AUC in the experiment with MCC13 cells (VN-MCC) was found to be 448.24. In addition, in the experiment with UISO cells (VN-MCC), the UISO_AUC is 458.954. The molecule further yielded an HEK293T_AUC with HEK293T cells of 455.709. In the experiment on WAGA cells (VP-MCC), the WAGA_AUC came to 404.704. In experiment [2], the Control-VN-MCC is listed as 11.3144 and the VN-MCC_Avg_AUC came to 467.687. The HACAT_AUC in the experiment on HACAT cells was 484.209. Moreover, in the experiment with MCC26 cells (VN-MCC), the MCC26_AUC worked out at 495.867. The MCC_Avg_AUC in [3] is 438.799. In addition, the MKL2_AUC in the experiment on MKL-2 cells (VP-MCC) stood at 418.75. Besides, in experiment [4], the Control-MCC is on record as 40.202. The molecule also had a Control_Avg_AUC in experiment [5] of 479.001. In the experiment with CRL-7250 cells, this molecule registered a CRL7250_AUC of 485.915.

These data come from publication PMC11822212, “High-throughput screening identifies Aurora kinase B as a critical therapeutic target for Merkel cell carcinoma” (Nature Communications, 2025).
